# Results reported in patent US8664235B2, “6-Halogeno-[1,2,4]triazolo[1,5-a]pyrimidines for combating animal pests” (Merial Limited, priority 2003, dated 2014).
# Key:
# Assay type in all cases: in vivo
# [1] = tested on: Cotton Aphid (Aphis gossypii); experiment: Cotton aphid test, cotyledons dipped in test solution; settings: 120 h, cotton plants, after 5 days, read-out: mortality in comparison with untreated controls
# Procedure: (§1) Surfactant (Alkamuls EL 620) was added at the rate of 0.1% (vol/vol).
# (§2) After the experiments were completed, in each case the lowest concentration was determined at which the compound still caused an 75 to 100% inhibition or mortality in comparison with untreated controls (limit or minimal concentration).
# (§3) Cotton plants in the cotyledon stage (variety ‘Delta Pine’) are infested with approximately 100 laboratory-reared aphids by placing infested leaf sections on top of the test plants. The leaf sections are removed after 24 hr. The cotyledons of the intact plants are dipped into gradient solutions of the test compound. Aphid mortality on the treated plants, relative to mortality on check plants, is determined after 5 days.
# [2] = tested on: Green Peach Aphid (Myzus persicae); experiment: Green peach aphid test, pepper leaves dipped; settings: 120 h, read-out: mortality in comparison with untreated controls
# Procedure: as §1, §2
# as §3, with “Pepper” for “Cotton”, “2nd leaf-pair” for “cotyledon”, “‘California Wonder’)” for “‘Delta Pine’)”, “40” for “100”, “leaves” for “cotyledons”
# [3] = tested on: Twospotted Spider Mite (Tetranychus urticae); experiment: Twospotted spider mite test, lima bean foliage dipped; settings: foliar, 120 h, lima bean plants, after 5 days, read-out: mortality in comparison with untreated controls
# Procedure: as §1, §2
# Lima bean plants in the 1st leaf-pair stage (variety ‘Henderson’) are infested with approximately 100 laboratory-reared mites per leaf by placing infested leaf sections on top of the test plants. The leaf sections are removed after 24 hr. The foliage of the intact plants is dipped into gradient solutions of the test compound. Mite mortality is determined after 5 days.
# Bean Aphid (Aphis fabae) = experiment: Bean aphid test, nasturtium foliage and stem dipped; settings: foliar, 72 h, nasturtium plants, after 3 days, read-out: mortality in comparison with untreated controls
# Procedure: as §1, §2
# Nasturtium plants in the 1st leaf-pair stage (variety ‘Mixed Jewel’) are infested with approximately 25 laboratory-reared aphids by placing infested cut plants on top of the test plants. The cut plants are removed after 24 hr. The foliage and stem of the test plants are dipped into gradient solutions of the test compound. Aphid mortality is determined after 3 days.
smiles,measurement,setting,value
"Cc1nc2ncnn2c(N[C@@H](C)c2ccc(F)cc2)c1Cl [Example 114, (S)-(6-chloro-5-methyl-[1,2,4]triazolo[1,5-a]pyrimidin-7-yl)-[1-(4-fluorophenyl)-ethyl]-amine]",mortality at 300 ppm,[1],> 75%
same,mortality at 300 ppm,[2],100%
"CCc1nc2ncnn2c(N[C@H]2CC[C@@H](C(C)(C)C)CC2)c1Cl [Example 1, (cis-4-tert-butyl-cyclohexyl)-[6-chloro-5-ethyl-[1,2,4]triazolo[1,5-a]pyrimidin-7-yl]-amine]",mortality at 300 ppm,[3],> 75%
same,mortality at 300 ppm,[1],> 75%
same,mortality at 300 ppm,[2],100%
same,mortality at 300 ppm,Bean Aphid (Aphis fabae),> 75%
